Where a name gives a salt, the structure may show the parent alone.
Molecular target: catalytic domain of human PARP14 (Homo sapiens (Human), UniProt Q460N5)
Assay: Enzymatic assay for inhibition of PARP14 (DELFIA, auto-modification with biotin-NAD)
Format: biochemical
Settings: auto-modification of PARP14 by biotin-NAD, 50 nM PARP14, 3 μM biotin-NAD
Outline: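 DELFIA auto-modification read-out: europium-streptavidin bound to biotin-NAD incorporated onto nickel-captured His-TEV PARP14 catalytic domain. Compound preincubated 30 min, then 50 nM enzyme with 3 μM biotin-NAD reacted 3 h, all at 25 °C, pH 8, then NAD quench. Percent inhibition normalized to rucaparib/DMSO wells, fitted (4- or 3-parameter) for IC50.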

Sequence of catalytic domain of human PARP14 (Q460N5 1611-1801): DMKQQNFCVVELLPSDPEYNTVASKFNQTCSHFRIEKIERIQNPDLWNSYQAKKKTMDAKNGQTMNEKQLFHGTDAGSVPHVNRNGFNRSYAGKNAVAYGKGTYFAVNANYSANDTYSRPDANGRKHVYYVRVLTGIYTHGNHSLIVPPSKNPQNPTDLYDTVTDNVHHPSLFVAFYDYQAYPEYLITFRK

| Structure (SMILES) | IC50 [nM] |
| --- | --- |
| O=c1[nH]c(CSC2CCOCC2)nc2cc(NC3CCCC3)cc(CF)c12 [Example 225, 7-(cyclopentylamino)-5-(fluoromethyl)-2-(((tetrahydro-2H-pyran-4-yl)thio)methyl)quinazolin-4(3H)-one] | > 10000 |
| O=c1[nH]c(CSC2CCNCC2)nc2cc(NC3CCCC3)c(F)cc12 [Example 226, 7-(Cyclopentylamino)-6-fluoro-2-((piperidin-4-ylthio)methyl)quinazolin-4(3H)-one hydrochloride] | < 1000 |
| O=c1[nH]c(CSC2CCNCC2)nc2nc(OCC3CC3)ccc12 [Example 229, 7-(Cyclopropylmethoxy)-2-((piperidin-4-ylthio)methyl)pyrido[2,3-d]pyrimidin-4(3H)-one Hydrochloride] | < 1000 |
| COc1cc2c(=O)[nH]c(CSC3CCNCC3)nc2cc1NCC1CCC1 [Example 230, 7-((Cyclobutylmethyl)amino)-6-methoxy-2-((piperidin-4-ylthio)methyl)quinazolin-4(3H)-one Hydrochloride] | 1000 to 10000 |
| O=c1[nH]c(CSC2CCOCC2)nc2cc(NC3CCCC3(F)F)cc(F)c12 (centres unmarked) [Example 231, 7-((2,2-Difluorocyclopentyl)amino)-5-fluoro-2-(((tetrahydro-2H-pyran-4-yl)thio)methyl)quinazolin-4(3H)-one] | < 1000 |
| O=c1[nH]c(CSC2CCNCC2)nc2cc(NC3CCCC3)c(F)c(F)c12 [Example 232, 7-(Cyclopentylamino)-5,6-difluoro-2-((piperidin-4-ylthio)methyl)quinazolin-4(3H)-one Hydrochloride] | < 1000 |
| O=c1[nH]c(CSC2CCOCC2)nc2cc(N[C@H]3CC[C@H](N4CCOCC4)CC3)cc(F)c12 [Example 233, 5-Fluoro-7-((trans-4-morpholinocyclohexyl)amino)-2-(((tetrahydro-2H-pyran-4-yl)thio)methyl)quinazolin-4(3H)-one Trifluoroacetate] | < 1000 |
| O=c1[nH]c(CSC2CCOCC2)nc2cc(N[C@H]3CC[C@@H](N4CCOCC4)CC3)cc(F)c12 [Example 234, 5-Fluoro-7-((cis-4-morpholinocyclohexyl)amino)-2-(((tetrahydro-2H-pyran-4-yl)thio)methyl)quinazolin-4(3H)-one Trifluoroacetate] | 1000 to 10000 |
| O=c1[nH]c(CSC2CCOCC2)nc2cc(OCC3CCOCC3)cc(F)c12 [Example 236, 5-Fluoro-7-((tetrahydro-2H-pyran-4-yl)methoxy)-2-(((tetrahydro-2H-pyran-4-yl)thio)methyl)quinazolin-4(3H)-one] | < 1000 |
| Cc1cc(OCC2CCC2)cc2nc(CSC3CCOCC3)[nH]c(=O)c12 [Example 237, 7-(Cyclobutylmethoxy)-5-methyl-2-(((tetrahydro-2H-pyran-4-yl)thio)methyl)quinazolin-4(3H)-one] | < 1000 |
| O=c1[nH]c(CSC2CCOCC2)nc2cc(OCC3CCOC3)cc(F)c12 (centres unmarked) [Example 238, 5-Fluoro-2-(((tetrahydro-2H-pyran-4-yl)thio)methyl)-7-((tetrahydrofuran-3-yl)methoxy)quinazolin-4(3H)-one] | < 1000 |
| O=c1[nH]c(CSC2CCOCC2)nc2cc(OC[C@@H]3CCOC3)cc(F)c12 [Example 239a, (R)-5-fluoro-2-(((tetrahydro-2H-pyran-4-yl)thio)methyl)-7-((tetrahydrofuran-3-yl)methoxy)quinazolin-4(3H)-one] | < 1000 |
| O=c1[nH]c(CSC2CCOCC2)nc2cc(OC[C@H]3CCOC3)cc(F)c12 [Example 239b, (S)-5-fluoro-2-(((tetrahydro-2H-pyran-4-yl)thio)methyl)-7-((tetrahydrofuran-3-yl)methoxy)quinazolin-4(3H)-one] | < 1000 |
| NC[C@]1(F)CC[C@@H](SCc2nc3cc(NC4CCCC4)cc(F)c3c(=O)[nH]2)CC1 [Example 243, 2-(((trans-4-(Aminomethyl)-4-fluorocyclohexyl)thio)methyl)-7-(cyclopentylamino)-5-fluoroquinazolin-4(3H)-one Trifluoroacetate] | < 1000 |
| NC[C@]1(F)CC[C@H](SCc2nc3cc(NC4CCCC4)cc(F)c3c(=O)[nH]2)CC1 [Example 244, 2-(((cis-4-(Aminomethyl)-4-fluorocyclohexyl)thio)methyl)-7-(cyclopentylamino)-5-fluoroquinazolin-4(3H)-one Trifluoroacetate] | < 1000 |
| O=c1[nH]c(CSC2CCOCC2)nc2cc(NC3CCOCC3)c(F)cc12 [Example 245, 6-Fluoro-7-((tetrahydro-2H-pyran-4-yl)amino)-2-(((tetrahydro-2H-pyran-4-yl)thio)methyl)quinazolin-4(3H)-one] | 1000 to 10000 |
| CN1CCC(SCc2nc3cc(NC4CCCC4)cc(F)c3c(=O)[nH]2)CC1 [Example 246, 7-(Cyclopentylamino)-5-fluoro-2-(((1-methylpiperidin-4-yl)thio)methyl)quinazolin-4(3H)-one] | < 1000 |
| O=c1[nH]c(CSC2CCOCC2)nc2cc(NC3CCCCC3)cc(F)c12 [Example 247, 7-(Cyclohexylamino)-5-fluoro-2-(((tetrahydro-2H-pyran-4-yl)thio)methyl)quinazolin-4(3H)-one] | < 1000 |
| O=c1[nH]c(CSC2CCNCC2)nc2cc(NC3CCCCC3)cc(F)c12 [Example 248, 7-(Cyclohexylamino)-5-fluoro-2-((piperidin-4-ylthio)methyl)quinazolin-4(3H)-one] | < 1000 |
| O=c1[nH]c(CS[C@H]2CC[C@H](O)CC2)nc2cc(NC3CCCCC3)cc(F)c12 [Example 249, 7-(Cyclohexylamino)-5-fluoro-2-((((1r,4r)-4-hydroxycyclohexyl)thio)methyl)quinazolin-4(3H)-one] | < 1000 |
| CS(=O)(=O)N1CCC[C@@H](Nc2cc(F)c3c(=O)[nH]c(CSC4CCOCC4)nc3c2)C1 [Example 250, (R)-5-fluoro-7-((1-(methylsulfonyl)piperidin-3-yl)amino)-2-(((tetrahydro-2H-pyran-4-yl)thio)methyl)quinazolin-4(3H)-one] | < 1000 |
| O=c1[nH]c(CSC2CCOCC2)nc2cc(NC3CCC3)cc(F)c12 [Example 251, 7-(Cyclobutylamino)-5-fluoro-2-(((tetrahydro-2H-pyran-4-yl)thio)methyl)quinazolin-4(3H)-one] | < 1000 |
| O=c1[nH]c(CSC2CCOCC2)nc2cc(NCCC3CCCC3)ccc12 [Example 252, 7-((2-Cyclopentylethyl)amino)-2-(((tetrahydro-2H-pyran-4-yl)thio)methyl)quinazolin-4(3H)-one] | < 1000 |
| O=c1[nH]c(CSC2CCOCC2)nc2cc(NC3CCCC3)cc(Cl)c12 [Example 253, 5-Chloro-7-(cyclopentylamino)-2-(((tetrahydro-2H-pyran-4-yl)thio)methyl)quinazolin-4(3H)-one] | < 1000 |
| O=c1[nH]c(CSC2CCN(CC(F)(F)F)CC2)nc2cc(NC3CCCC3)ccc12 [Example 254, 7-(Cyclopentylamino)-2-(((1-(2,2,2-trifluoroethyl)piperidin-4-yl)thio)methyl)quinazolin-4(3H)-one] | < 1000 |
| O=c1[nH]c(CSC2CCN(C3COC3)CC2)nc2cc(NC3CCCC3)cc(F)c12 [Example 255, 7-(Cyclopentylamino)-5-fluoro-2-(((1-(oxetan-3-yl)piperidin-4-yl)thio)methyl)quinazolin-4(3H)-one] | < 1000 |
